How the values were obtained:
[1] = target: Epidermal growth factor receptor (Homo sapiens, UniProt P00533); test: DRUGMATRIX: Protein Tyrosine Kinase, EGF Receptor enzyme inhibition (substrate: Poly(Glu:Tyr)); assay type: cell-based, Insect cells; conditions: insect cells; Not Active = under 50% inhibition at 10 µM
[2] = target: Prostaglandin G/H synthase 1 (Homo sapiens, UniProt P23219); test: biochemical; assay type: tissue-based, Platelet; conditions: platelet;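 further: inhibition of COX-1 enzyme activity, with arachidonic acid supplied as substrate; in other assays of this panel Not Active means under 50% inhibition at 10 µM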
Glycine receptor = Glycine receptor (Rattus norvegicus, UniProt P22771+P24524+P07727+P20781); assay type: cell membranes, Wistar, Spinal cord, Membrane; further: in other assays of this panel Not Active means under 50% inhibition at 10 µM
[3] = target: T1, Alpha-1A adrenergic receptor (Rattus norvegicus, UniProt P43140); test: DRUGMATRIX: Alpha-1A adrenergic receptor radioligand binding (ligand: prazosin); assay type: cell membranes, Wistar, Submaxillary gland, Membrane; conditions: Not Active = under 50% inhibition at 10 µM
T1 sequence (P43140 whole entry): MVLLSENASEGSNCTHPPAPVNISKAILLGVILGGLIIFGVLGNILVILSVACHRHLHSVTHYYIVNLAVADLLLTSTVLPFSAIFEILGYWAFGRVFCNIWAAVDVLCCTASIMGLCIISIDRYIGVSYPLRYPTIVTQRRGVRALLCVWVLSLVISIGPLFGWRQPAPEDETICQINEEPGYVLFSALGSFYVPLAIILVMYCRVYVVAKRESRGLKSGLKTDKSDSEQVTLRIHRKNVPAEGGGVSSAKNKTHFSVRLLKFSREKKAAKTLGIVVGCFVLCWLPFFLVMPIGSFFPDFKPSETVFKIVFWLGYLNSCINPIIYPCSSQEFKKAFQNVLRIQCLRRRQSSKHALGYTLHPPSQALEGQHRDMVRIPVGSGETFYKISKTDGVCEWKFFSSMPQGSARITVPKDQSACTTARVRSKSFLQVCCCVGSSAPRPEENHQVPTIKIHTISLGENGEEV

[4] = DRUGMATRIX: Interleukin IL-1 radioligand binding (ligand: [125I] interleukin 1beta); assay type: cell membranes, Membrane; conditions: nih3t3; Not Active = under 50% inhibition at 10 µM
Interstitial collagenase = target: T2, Interstitial collagenase (Homo sapiens, UniProt P03956); assay type: tissue-based, Rheumatoid synovial fibroblasts;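 further: MMP-1 enzyme inhibition assay using a peptide substrate; in other assays of this panel Not Active means under 50% inhibition at 10 µM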
T2 sequence (P03956 whole entry): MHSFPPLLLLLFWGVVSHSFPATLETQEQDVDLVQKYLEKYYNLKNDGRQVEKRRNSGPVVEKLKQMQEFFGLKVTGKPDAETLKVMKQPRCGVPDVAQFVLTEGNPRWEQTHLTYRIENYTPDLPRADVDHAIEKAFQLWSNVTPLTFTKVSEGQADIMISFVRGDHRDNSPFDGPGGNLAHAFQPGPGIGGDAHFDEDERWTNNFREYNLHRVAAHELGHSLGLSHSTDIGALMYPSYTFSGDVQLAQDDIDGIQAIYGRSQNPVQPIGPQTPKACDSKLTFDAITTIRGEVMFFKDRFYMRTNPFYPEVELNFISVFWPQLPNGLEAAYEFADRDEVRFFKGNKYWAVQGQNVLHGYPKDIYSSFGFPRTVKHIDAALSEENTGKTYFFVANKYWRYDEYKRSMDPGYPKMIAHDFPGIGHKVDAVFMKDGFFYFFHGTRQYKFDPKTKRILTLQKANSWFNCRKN

[5] = target: Delta-type opioid receptor (Homo sapiens, UniProt P41143); assay type: cell membranes, HEK293, Membrane; conditions: hek293; further: in other assays of this panel Not Active means under 50% inhibition at 10 µM
[6] = target: Beta-1 adrenergic receptor (Homo sapiens, UniProt P08588); test: DRUGMATRIX: Adrenergic beta1 radioligand binding (ligand: [125I] Cyanopindolol); assay type: cell membranes, CHO-K1, Membrane; conditions: cho-k1; Not Active = under 50% inhibition at 10 µM
[7] = target: T3, Nitric oxide synthase, inducible (Mus musculus, UniProt P29477); design: species or system Escherichia coli
T3 sequence (P29477 whole entry): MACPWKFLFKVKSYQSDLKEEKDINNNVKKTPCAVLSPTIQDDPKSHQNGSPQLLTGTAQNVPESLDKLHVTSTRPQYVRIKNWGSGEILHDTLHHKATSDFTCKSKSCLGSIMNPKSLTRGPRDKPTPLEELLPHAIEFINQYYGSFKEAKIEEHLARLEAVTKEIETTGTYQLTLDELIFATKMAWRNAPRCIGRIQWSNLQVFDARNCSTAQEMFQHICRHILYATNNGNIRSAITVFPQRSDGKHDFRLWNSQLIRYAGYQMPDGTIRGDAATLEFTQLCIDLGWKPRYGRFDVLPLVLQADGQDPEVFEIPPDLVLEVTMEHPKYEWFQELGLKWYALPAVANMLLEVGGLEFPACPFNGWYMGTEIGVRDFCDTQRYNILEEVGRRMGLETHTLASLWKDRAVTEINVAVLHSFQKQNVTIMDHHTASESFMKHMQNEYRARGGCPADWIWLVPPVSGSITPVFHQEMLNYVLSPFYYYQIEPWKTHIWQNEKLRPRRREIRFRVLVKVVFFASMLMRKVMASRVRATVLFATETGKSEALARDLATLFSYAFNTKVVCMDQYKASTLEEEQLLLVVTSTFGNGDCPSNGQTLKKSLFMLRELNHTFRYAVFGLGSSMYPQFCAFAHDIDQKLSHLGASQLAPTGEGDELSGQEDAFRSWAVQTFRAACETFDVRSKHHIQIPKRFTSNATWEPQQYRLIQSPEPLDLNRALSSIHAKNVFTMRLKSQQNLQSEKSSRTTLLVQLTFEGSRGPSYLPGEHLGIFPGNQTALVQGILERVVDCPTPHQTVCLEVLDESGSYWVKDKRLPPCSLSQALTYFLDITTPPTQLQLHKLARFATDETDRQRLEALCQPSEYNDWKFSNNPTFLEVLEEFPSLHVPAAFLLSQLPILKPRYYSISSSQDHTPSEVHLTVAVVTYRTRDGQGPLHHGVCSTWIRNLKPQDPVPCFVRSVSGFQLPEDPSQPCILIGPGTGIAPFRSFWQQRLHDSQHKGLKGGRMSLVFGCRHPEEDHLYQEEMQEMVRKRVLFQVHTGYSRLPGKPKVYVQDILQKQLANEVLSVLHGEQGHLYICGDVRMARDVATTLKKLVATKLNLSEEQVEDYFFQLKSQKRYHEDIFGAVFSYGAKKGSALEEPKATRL

[8] = target: 5-hydroxytryptamine receptor 2B (Homo sapiens, UniProt P41595); assay type: cell membranes, CHO-K1, Membrane; conditions: cho-k1; further: in other assays of this panel Not Active means under 50% inhibition at 10 µM
[9] = target: Receptor tyrosine-protein kinase erbB-2 (Homo sapiens, UniProt P04626); test: biochemical; assay type: cell-based, Insect cells; conditions: insect cells
Sequence of Receptor tyrosine-protein kinase erbB-2 (P04626 whole entry): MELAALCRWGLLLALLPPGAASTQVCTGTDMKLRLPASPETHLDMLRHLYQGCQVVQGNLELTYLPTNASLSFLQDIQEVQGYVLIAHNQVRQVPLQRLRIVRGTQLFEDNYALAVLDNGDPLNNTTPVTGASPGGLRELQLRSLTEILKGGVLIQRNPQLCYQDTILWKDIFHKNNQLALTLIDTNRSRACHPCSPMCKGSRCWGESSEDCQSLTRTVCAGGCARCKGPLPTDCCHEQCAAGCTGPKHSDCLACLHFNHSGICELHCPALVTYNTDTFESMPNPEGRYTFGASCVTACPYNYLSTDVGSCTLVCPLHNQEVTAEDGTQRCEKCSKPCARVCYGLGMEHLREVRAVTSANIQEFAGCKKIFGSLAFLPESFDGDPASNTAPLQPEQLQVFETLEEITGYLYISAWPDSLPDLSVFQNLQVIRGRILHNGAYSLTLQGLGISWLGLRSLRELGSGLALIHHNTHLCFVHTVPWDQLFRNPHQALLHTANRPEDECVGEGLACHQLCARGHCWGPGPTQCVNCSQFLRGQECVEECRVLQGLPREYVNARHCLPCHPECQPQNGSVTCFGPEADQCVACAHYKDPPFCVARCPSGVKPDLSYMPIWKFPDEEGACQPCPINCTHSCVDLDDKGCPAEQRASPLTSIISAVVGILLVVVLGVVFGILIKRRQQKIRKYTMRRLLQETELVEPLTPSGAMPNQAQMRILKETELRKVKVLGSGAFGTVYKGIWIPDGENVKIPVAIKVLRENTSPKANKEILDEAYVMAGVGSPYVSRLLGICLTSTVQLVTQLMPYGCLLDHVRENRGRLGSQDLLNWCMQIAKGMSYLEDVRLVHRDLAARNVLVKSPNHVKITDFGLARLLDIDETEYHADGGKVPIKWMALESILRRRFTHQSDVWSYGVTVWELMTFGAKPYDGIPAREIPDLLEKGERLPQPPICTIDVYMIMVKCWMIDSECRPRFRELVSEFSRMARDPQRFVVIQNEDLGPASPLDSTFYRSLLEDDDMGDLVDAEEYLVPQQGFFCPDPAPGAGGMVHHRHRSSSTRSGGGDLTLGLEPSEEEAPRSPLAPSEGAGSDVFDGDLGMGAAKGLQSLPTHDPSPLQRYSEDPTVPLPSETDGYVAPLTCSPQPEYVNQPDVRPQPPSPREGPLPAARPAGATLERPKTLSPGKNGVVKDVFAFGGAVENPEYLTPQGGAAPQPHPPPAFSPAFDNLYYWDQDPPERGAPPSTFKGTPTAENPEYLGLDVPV

Sequence of Beta-1 adrenergic receptor (P08588 whole entry): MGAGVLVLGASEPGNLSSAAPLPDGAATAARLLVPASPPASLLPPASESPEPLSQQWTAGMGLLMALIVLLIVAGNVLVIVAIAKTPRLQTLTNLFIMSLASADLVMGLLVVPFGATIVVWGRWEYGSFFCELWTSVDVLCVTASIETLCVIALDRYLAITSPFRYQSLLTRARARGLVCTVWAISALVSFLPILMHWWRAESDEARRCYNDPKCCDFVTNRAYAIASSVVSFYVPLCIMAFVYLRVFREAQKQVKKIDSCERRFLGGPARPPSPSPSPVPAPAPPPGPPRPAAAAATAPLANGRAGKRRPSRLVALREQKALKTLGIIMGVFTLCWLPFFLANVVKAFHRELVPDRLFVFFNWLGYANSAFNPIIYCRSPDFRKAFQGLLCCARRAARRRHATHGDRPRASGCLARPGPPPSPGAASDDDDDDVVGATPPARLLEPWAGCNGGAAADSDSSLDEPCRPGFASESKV
Sequence of Prostaglandin G/H synthase 1 (P23219 whole entry): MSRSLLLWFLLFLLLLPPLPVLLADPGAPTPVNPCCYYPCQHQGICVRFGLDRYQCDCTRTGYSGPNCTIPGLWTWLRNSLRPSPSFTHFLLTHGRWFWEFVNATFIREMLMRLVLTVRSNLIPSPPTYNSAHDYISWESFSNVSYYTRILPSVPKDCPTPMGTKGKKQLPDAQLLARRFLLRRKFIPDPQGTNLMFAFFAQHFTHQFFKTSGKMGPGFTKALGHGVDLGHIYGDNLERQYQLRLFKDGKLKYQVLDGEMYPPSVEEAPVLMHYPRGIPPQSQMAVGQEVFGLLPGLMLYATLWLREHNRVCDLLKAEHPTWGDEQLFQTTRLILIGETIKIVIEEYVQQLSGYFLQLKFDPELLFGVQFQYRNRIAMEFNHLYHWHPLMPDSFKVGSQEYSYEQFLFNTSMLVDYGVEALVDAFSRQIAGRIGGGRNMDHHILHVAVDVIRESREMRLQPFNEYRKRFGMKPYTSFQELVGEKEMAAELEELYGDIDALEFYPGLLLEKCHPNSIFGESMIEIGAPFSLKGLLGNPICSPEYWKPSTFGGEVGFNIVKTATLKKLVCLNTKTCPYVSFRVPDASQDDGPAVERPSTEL
Sequence of 5-hydroxytryptamine receptor 2B (P41595 whole entry): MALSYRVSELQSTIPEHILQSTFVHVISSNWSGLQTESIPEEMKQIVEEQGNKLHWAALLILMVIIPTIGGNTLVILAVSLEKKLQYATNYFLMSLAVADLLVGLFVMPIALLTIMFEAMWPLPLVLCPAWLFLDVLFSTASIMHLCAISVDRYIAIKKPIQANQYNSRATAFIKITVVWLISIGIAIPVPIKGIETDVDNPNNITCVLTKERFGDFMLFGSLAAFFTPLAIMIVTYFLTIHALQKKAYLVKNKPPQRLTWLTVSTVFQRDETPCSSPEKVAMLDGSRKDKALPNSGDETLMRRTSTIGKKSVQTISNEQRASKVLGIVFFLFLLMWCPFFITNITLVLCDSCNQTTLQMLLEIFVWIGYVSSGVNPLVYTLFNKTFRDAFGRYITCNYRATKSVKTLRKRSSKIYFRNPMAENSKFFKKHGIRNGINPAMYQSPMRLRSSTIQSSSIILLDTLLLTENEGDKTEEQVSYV
Sequence of Delta-type opioid receptor (P41143 whole entry): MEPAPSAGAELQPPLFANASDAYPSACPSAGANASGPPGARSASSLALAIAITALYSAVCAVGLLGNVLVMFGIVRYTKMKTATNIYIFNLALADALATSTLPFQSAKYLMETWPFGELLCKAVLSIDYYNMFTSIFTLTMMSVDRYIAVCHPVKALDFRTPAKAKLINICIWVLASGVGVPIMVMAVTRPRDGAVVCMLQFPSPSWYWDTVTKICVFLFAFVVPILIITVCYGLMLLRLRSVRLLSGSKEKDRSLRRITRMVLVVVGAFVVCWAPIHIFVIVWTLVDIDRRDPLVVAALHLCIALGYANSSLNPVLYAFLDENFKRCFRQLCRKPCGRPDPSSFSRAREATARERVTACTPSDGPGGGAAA
Sequence of Epidermal growth factor receptor (P00533 whole entry): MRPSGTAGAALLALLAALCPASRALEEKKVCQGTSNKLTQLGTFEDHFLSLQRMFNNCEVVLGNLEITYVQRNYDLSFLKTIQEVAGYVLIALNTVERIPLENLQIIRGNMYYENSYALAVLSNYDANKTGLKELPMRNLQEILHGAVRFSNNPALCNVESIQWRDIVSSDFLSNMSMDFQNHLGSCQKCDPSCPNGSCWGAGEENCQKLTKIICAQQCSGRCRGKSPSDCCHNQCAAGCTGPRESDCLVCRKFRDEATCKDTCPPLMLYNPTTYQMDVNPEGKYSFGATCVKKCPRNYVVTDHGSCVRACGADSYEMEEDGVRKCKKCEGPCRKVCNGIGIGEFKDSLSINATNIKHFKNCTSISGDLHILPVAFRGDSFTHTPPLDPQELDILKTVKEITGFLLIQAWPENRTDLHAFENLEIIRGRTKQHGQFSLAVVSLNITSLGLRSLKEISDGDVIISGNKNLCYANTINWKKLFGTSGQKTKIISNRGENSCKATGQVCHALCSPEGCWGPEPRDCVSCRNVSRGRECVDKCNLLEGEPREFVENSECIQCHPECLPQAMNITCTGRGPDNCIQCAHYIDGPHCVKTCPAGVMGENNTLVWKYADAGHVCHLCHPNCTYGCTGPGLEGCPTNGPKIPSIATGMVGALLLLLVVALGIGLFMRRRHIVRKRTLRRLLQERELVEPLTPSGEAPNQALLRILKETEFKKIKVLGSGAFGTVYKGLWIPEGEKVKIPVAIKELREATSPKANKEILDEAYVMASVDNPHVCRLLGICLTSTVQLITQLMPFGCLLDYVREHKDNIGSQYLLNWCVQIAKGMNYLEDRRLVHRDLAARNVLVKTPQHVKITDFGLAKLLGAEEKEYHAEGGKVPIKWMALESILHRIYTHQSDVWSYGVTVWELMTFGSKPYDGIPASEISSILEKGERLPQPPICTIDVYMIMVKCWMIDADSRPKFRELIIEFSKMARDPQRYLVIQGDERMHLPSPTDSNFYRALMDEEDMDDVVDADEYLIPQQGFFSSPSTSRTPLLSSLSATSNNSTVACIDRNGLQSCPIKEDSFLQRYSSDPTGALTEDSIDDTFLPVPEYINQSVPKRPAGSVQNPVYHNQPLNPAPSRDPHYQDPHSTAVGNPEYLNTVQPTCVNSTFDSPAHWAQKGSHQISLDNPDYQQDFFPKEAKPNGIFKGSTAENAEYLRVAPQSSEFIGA

NCC[C@H](O)C(=O)N[C@@H]1C[C@H](N)[C@@H](O[C@H]2O[C@H](CN)[C@@H](O)[C@H](O)[C@H]2O)[C@H](O)[C@H]1O[C@H]1O[C@H](CO)[C@@H](O)[C@H](N)[C@H]1O [AMIKACIN]
Not Active: IC50 [1] | IC50 [2] | IC50 (Glycine receptor) | IC50 [3] | IC50 [4] | Ki [4] | IC50 (Interstitial collagenase) | IC50 [5] | IC50 [6] | IC50 [7] | IC50 [8] | IC50 [9]

CC1(C)S[C@@H]2[C@H](NC(=O)[C@H](N)c3ccc(O)cc3)C(=O)N2[C@H]1C(=O)O [AMOXICILLIN]
Not Active: IC50 [1] | IC50 [2] | IC50 (Glycine receptor) | IC50 [3] | IC50 [4] | Ki [4] | IC50 (Interstitial collagenase) | IC50 [5] | IC50 [6] | IC50 [7] | IC50 [8] | IC50 [9]

CCOC(=O)OC(C)OC1=C(C(=O)Nc2ccccn2)N(C)S(=O)(=O)c2ccccc21 (stereo unspecified) [AMPIROXICAM]
Not Active: IC50 [1] | IC50 [2] | IC50 (Glycine receptor) | IC50 [3] | IC50 [4] | Ki [4] | IC50 (Interstitial collagenase) | IC50 [5] | IC50 [6] | IC50 [7] | IC50 [8] | IC50 [9]

N#C[C@H](O[C@@H]1O[C@H](CO[C@@H]2O[C@H](CO)[C@@H](O)[C@H](O)[C@H]2O)[C@@H](O)[C@H](O)[C@H]1O)c1ccccc1 [AMYGDALIN]
Not Active: IC50 [1] | IC50 [2] | IC50 (Glycine receptor) | IC50 [3] | IC50 [4] | Ki [4] | Ki (Interstitial collagenase) | IC50 [5] | IC50 [6] | IC50 [7] | IC50 [8] | IC50 [9]

C=C1[C@@H]2CCC3[C@@](CC[C@@H]4[C@H](C(=O)O)C[C@@H](O[C@@H]5O[C@H](CO)[C@@H](OS(=O)(=O)[O-])[C@H](OS(=O)(=O)[O-])[C@H]5OC(=O)CC(C)C)C[C@@]34C)(C2)[C@@H]1O.[K+].[K+] (stereo partly specified) [ATRACTYLOSIDE]
Not Active: IC50 [1] | IC50 [2] | IC50 (Glycine receptor) | IC50 [3] | IC50 [4] | Ki [4] | IC50 (Interstitial collagenase) | IC50 [5] | IC50 [6] | IC50 [7] | IC50 [8] | IC50 [9]

Cn1cnc([N+](=O)[O-])c1Sc1ncnc2nc[nH]c12 [AZATHIOPRINE]
Not Active: IC50 [1] | IC50 [2] | IC50 (Glycine receptor) | IC50 [3] | IC50 [4] | Ki [4] | IC50 (Interstitial collagenase) | IC50 [5] | IC50 [6] | IC50 [7] | IC50 [8] | IC50 [9]

CC1(C)S[C@@H]2[C@H](NC(=O)[C@H](NC(=O)N3CCNC3=O)c3ccccc3)C(=O)N2[C@H]1C(=O)O [AZLOCILLIN]
Not Active: IC50 [1] | IC50 [2] | IC50 (Glycine receptor) | IC50 [3] | IC50 [4] | Ki [4] | IC50 (Interstitial collagenase) | IC50 [5] | IC50 [6] | IC50 [7] | IC50 [8] | IC50 [9]

CCOC(=O)c1ccc(N)cc1 [BENZOCAINE]
Not Active: IC50 [1] | IC50 [2] | IC50 (Glycine receptor) | IC50 [3] | IC50 [4] | Ki [4] | IC50 (Interstitial collagenase) | IC50 [5] | IC50 [6] | IC50 [7] | IC50 [8] | IC50 [9]

Reference: ChEMBL document CHEMBL1909046, “DrugMatrix in vitro pharmacology data”
